Patent US7648974B1, “19-nor-vitamin D analogs with 3,2-dihydrofuran ring” (Wisconsin Alumni Research Foundation, priority 2008, dated 2010)
Entries after “also recorded” stand apart in the source; their conditions may differ.

Legend:
[1] = test system: 24-hydroxylase (24Ohase) gene promoter; assay: In vitro transcription assay, luciferase reporter in ROS 17/2.8 (bone) cells; type: cell-based; settings: ROS 17/2.8 cells, 24-hydroxylase promoter luciferase; FIG. 3; read-out: EC50, transcriptional activity in bone cells
Method: In Vitro Transcription Assay
Transcription activity was measured in ROS 17/2.8 (bone) cells that were stably transfected with a 24-hydroxylase (24Ohase) gene promoter upstream of a luciferase reporter gene (Arbour et al., 1998). Cells were given a range of doses. Sixteen hours after dosing the cells were harvested and luciferase activities were measured using a luminometer.
RLU=relative luciferase units.

[2] = test system: Sprague-Dawley rats; assay: Bone calcium mobilization (serum calcium); type: in vivo; settings: FIG. 4; for serum calcium value: 7,020 pmol/day for 4 consecutive days, ip, low calcium diet (0.02%)
Method: (§1) Intestinal Calcium Transport and Bone Calcium Mobilization
(§2) Male, weanling Sprague-Dawley rats were placed on Diet 11 (0.47% Ca) diet+AEK oil for one week followed by Diet 11 (0.02% Ca)+AEK oil for 3 weeks. The rats were then switched to a diet containing 0.47% Ca for one week followed by two weeks on a diet containing 0.02% Ca. Dose administration began during the last week on 0.02% calcium diet. Four consecutive ip doses were given approximately 24 hours apart. Twenty-four hours after the last dose, blood was collected from the severed neck and the concentration of serum calcium determined as a measure of bone calcium mobilization. The first 10 cm of the intestine was also collected for intestinal calcium transport analysis using the everted gut sac method.

[3] = test system: Human promyelocytic leukemia (HL60) cells; assay: HL-60 differentiation (nitro blue tetrazolium reduction); type: cell-based; settings: for EC50: Homo sapiens, HL-60, HL60 cells, FIG. 2
Method: Serial dilutions were prepared so that a range of drug concentrations could be tested without changing the final concentration of ethanol (≦0.2%) present in the cell cultures.
Human promyelocytic leukemia (HL60) cells were grown in RPMI-1640 medium containing 10% fetal bovine serum. The cells were incubated at 37° C. in the presence of 5% CO2.
HL60 cells were plated at 1.2×10^5 cells/ml. Eighteen hours after plating, cells in duplicate were treated with drug. Four days later, the cells were harvested and a nitro blue tetrazolium reduction assay was performed (Collins et al., 1979; J. Exp. Med. 149:969-974). The percentage of differentiated cells was determined by counting a total of 200 cells and recording the number that contained intracellular black-blue formazan deposits. Verification of differentiation to monocytic cells was determined by measuring phagocytic activity (data not shown).

[4] = test system: Sprague-Dawley rats; assay: Intestinal calcium transport (everted gut sac method); type: in vivo; settings: FIG. 5
Method: as §1, §2

[5] = molecular target: T1, full-length recombinant rat vitamin D receptor (Rattus norvegicus, UniProt P13053)
T1 sequence (P13053 1-423): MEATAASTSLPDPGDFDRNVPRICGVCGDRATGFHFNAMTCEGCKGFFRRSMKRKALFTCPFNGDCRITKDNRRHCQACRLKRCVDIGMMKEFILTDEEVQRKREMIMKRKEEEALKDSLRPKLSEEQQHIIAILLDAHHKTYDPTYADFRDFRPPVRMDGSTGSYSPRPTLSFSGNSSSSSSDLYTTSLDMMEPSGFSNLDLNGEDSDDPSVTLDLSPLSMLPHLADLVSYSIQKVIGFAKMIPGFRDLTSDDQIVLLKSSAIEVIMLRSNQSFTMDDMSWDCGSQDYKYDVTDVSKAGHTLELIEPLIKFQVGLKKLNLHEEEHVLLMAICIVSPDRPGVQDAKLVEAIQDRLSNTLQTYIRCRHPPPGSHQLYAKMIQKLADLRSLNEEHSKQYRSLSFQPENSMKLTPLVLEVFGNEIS
From the text: Vitamin D Receptor Binding
Full-length recombinant rat receptor was expressed in E. coli BL21 (DE3) Codon Plus RIL cells and purified to homogeneity using two different column chromatography systems. The first system was a nickel affinity resin that utilizes the C-terminal histidine tag on this protein. The protein that was eluted from this resin was further purified using ion exchange chromatography (S-Sepharose Fast Flow). Aliquots of the purified protein were quick frozen in liquid nitrogen and stored at −80° C. until use. For use in binding assays, the protein was diluted in TEDK50 (50 mM Tris, 1.5 mM EDTA, pH7.4, 5 mM DTT, 150 mM KCl) with 0.1% Chaps detergent.
Radiolabeled and unlabeled ligands were added to 100 mcl of the diluted protein at a final ethanol concentration of ≦10%, mixed and incubated overnight on ice to reach binding equilibrium. The following day, 100 mcl of hydroxylapatite slurry (50%) was added to each tube and mixed at 10-minute intervals for 30 minutes. The hydroxylapaptite was collected by centrifugation and then washed three times with Tris-EDTA buffer (50 mM Tris, 1.5 mM EDTA, pH 7.4) containing 0.5% Titron X-100. After the final wash, the pellets were transferred to scintillation vials containing 4 ml of Biosafe II scintillation cocktail, mixed and placed in a scintillation counter. Total binding was determined from the tubes containing only radiolabeled ligand.

Ki [5] [nM]	VDR affinity, less potent than 1,25-(OH)2D3 ([5]; relative to 1,25-(OH)2D3) [times]	VDR binding diminished as compared to 1α,25-dihydroxyvitamin D3 ([5]; relative to 1α,25-dihydroxyvitamin D3) [fold]	VDR binding affinity lower than the native hormone ([5]; relative to the native hormone)	Compound	EC50 [1] [nM]	serum calcium value [2] [mg/dL]	bone calcium mobilization activity (in words) ([2]; in vivo, doses tested)	EC50 [3] [nM]	intestinal calcium transport activity (in words) ([4]; 780 pmol/day for 4 consecutive days)	intestinal calcium transport activity in vivo (in words) ([4]; in vivo, compared to 1,25-(OH)2D3)	HL-60 cell differentiation, less active/potent than 1,25(OH)2D3 ([3]; relative to 1,25(OH)2D3)	potency to promote HL60 cell differentiation, less than calcitriol ([3]; relative to calcitriol) [logs]
				C=C1/C(=C\C=C2/CCC[C@]3(C)[C@@H]([C@H](C)CCCC(C)(C)O)CC[C@@H]23)C[C@@H](O)C[C@@H]1O [1,25-(OH)2D3, 1α,25-dihydroxyvitamin D3, reference compound]	0.2	7.9	increased serum calcium levels at all the dosages tested	3				
800	~40	~10	approximately 4 orders of magnitude	C[C@H](CCCC(C)(C)O)C1CCC2/C(=C/C=C3\C[C@@H](O)C4=CCO[C@@H]4C3)CCC[C@@]21C (stereo partly drawn) [B-REV5, 3,2-dihydrofuran-1α,25-dihydroxy-19-nor-vitamin D3]	300	6.1		1000	almost the same activity as 1,25-(OH)2D3	significant intestinal calcium transport activity; also recorded: about the same potency	about 1,000 times	3
